Earlier results, collected in article PMC10698917, “Antioxidant and antidiabetic flavonoids from the leaves of Dypsis pembana (H.E.Moore) Beentje & J.Dransf., Arecaceae: in vitro and molecular docking studies” (BMC Complementary Medicine and Therapies, 2023).

Test system: HepG-2 cell line
Design: method as in PMID 37391756
Settings: cited from earlier work

SMILES | Cytotoxic activity
O=c1cc(-c2ccc(O)cc2)oc2c([C@@H]3O[C@H](CO)[C@@H](O)[C@H](O)[C@H]3O)c(O)c([C@@H]3O[C@H](CO)[C@@H](O)[C@H](O)[C@H]3O)c(O)c12 [Compound 7, vicenin-II] | promising cytotoxic activities
O=c1cc(-c2ccc(O)cc2)oc2cc(O)c([C@@H]3O[C@H](CO)[C@@H](O)[C@H](O)[C@H]3O)c(O)c12 [Compound 13, isovitexin] | promising cytotoxic activities
